The source of these data is article PMC9562341, “AI protein structure prediction-based modeling and mutagenesis of a protostome receptor and peptide ligands reveal key residues for their interaction” (The Journal of Biological Chemistry, 2022).

Where no end group is shown, it is not given here.

Usually EC50 stands for the concentration that produces a half-maximal response.

What all share (format): cell-based
Test [1] addresses ALKR L157Q (Aplysia californica, UniProt A0A977Q7Q2, L157Q). In words: IP1 accumulation assay, ALKR mutant L157Q in CHO-K1. The following applies: mutant without FLAG tag, n = 3. From the text: (§1) IP1 accumulation assay measures concentration of IP1 ([88]), that is hydrolyzed from the second messenger, inositol trisphosphate, generated by Gαq pathway when GPCR expressed in CHO-K1 cells is activated by an appropriate ligand. We note two reasons that we selected mammalian CHO-K1 cells for assays for ligand-receptor (GPCR) activity: (1) there are no established molluscan cell lines available; (2) CHO-K1 cells have been extensively utilized not only for vertebrate GPCRs (e.g., ([97])) but also for invertebrate/protostome GPCRs, including other molluscs ([9], [11], [73]), annelids ([8]), jellyfish ([98]), Caenorrhabditis elegans ([99]), and arthropods ([76], [78], [79], [80]). Given that LKRs are only present in protostomes ([6], [7], [66], [67]), an additional advantage of using mammalian cells to assay ligand-receptor activity is that the effects of a possible native LKR in protostome cell lines could be excluded.
(§2) In order to express the Aplysia putative receptor transiently in CHO-K1, the cDNA was cloned into the mammalian expression vector pcDNA3.1(+). […] Transfection experiments were performed when the cells were grown to 70 to 90% confluence. […] On the third day, the activation of the receptors was detected by monitoring IP1 accumulation using IP1 detection kit (Cisbio, 62IPAPEB) with a Tecan Spark plate reader. […]

In test [2] the target is T1, Anopheles LKR (Anopheles stephensi, UniProt Q694V6).
T1 sequence (Q694V6 1-573): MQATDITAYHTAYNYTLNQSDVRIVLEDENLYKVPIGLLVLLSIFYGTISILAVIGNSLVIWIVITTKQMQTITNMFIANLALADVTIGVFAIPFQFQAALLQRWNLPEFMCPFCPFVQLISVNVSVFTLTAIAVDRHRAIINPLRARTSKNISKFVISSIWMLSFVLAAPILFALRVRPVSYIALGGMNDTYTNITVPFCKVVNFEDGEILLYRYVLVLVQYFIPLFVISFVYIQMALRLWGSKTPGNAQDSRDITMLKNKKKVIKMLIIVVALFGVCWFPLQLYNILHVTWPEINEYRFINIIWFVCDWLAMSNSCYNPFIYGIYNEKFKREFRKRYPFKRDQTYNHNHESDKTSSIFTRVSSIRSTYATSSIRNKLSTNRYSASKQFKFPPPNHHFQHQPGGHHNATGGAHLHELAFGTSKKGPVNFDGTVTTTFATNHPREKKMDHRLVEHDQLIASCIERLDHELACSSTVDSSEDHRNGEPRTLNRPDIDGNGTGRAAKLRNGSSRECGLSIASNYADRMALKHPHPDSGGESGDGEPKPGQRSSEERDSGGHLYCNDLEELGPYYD
In words: IP1 accumulation assay, CHO-K1 cells cotransfected with Anopheles LKR and promiscuous Gαq. The following applies: log scale, mean ± SEM, n = 3.
Source text: Considering the similarity of leucokinin-like peptides in different species (Fig. 1), we sought to evaluate cross-activity between leucokinin peptides and their receptors in different species. We selected A. stephensi because it is a pest, and this would also provide an opportunity to determine if Aplysia LKs could be potentially used as insecticides ([67]). […] Thus, we cotransfected promiscuous Gαq with the Anopheles receptor, whereas there was no cotransfection of promiscuous Gαq for ALKR.
as §1
In order to express the Aplysia putative receptor transiently in CHO-K1, the cDNA was cloned into the mammalian expression vector pcDNA3.1(+). […] Transfection experiments were performed when the cells were grown to 70 to 90% confluence. For the ALKR, in each dish (60-mm diameter), 4 μg of the putative receptor plasmids [in pcDNA3.1(+)] were mixed with 400 μl of Opti-MEM (Gibco, 11058021), followed by the addition of 15 μl of Turbofect (Thermo Fisher Scientific, R0531). […] Thus, 3 μg of the putative receptor plasmids [in pcDNA3.1(+)] and 3 μg of promiscuous Gαq protein ([89]) [in pcDNA3.1(+)] were cotransfected in the above procedure for the Anopheles LKR ([8], [10]). The CHO-K1 cells with the reagents added above were mixed gently and incubated at room temperature for 15 min. The DNA/Turbofect mixture dropwise was then added to the dish, and the cells were incubated at 37 °C in 5% CO2 overnight. The next day, the cells were trypsinized and reseeded in opaque white 96-well half-area (Corning, 3688) or 384-well tissue culture–treated plates (Corning, 3570) at a density of 20,000 cells/well in F-12K and 10% FBS and incubated at 37 °C in 5% CO2 overnight. On the third day, the activation of the receptors was detected by monitoring IP1 accumulation using IP1 detection kit (Cisbio, 62IPAPEB) with a Tecan Spark plate reader. […]

The target in test [3] is ALKR Y213A (Aplysia californica, UniProt A0A977Q7Q2, Y213A). In words: IP1 accumulation assay, ALKR mutant Y213A in CHO-K1.
Chain of ALKR Y213A (A0A977Q7Q2 entry or part of it Y213A): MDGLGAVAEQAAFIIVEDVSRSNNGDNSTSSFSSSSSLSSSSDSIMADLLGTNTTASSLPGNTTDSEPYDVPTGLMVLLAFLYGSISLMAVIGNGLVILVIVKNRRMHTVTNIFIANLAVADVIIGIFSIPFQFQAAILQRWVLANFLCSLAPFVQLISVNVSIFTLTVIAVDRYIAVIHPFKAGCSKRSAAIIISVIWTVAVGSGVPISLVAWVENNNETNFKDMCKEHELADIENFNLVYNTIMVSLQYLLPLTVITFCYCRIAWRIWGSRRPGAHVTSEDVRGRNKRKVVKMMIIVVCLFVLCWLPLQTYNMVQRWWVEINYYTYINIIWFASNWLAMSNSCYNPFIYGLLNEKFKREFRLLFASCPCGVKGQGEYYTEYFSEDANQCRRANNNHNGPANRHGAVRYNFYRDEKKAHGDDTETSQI
Source text: as §1, §2

In test [4] the target is ALKR Q317A (Aplysia californica, UniProt A0A977Q7Q2, Q317A). Briefly: IP1 accumulation assay, ALKR mutant Q317A in CHO-K1.
Chain of ALKR Q317A (A0A977Q7Q2 entry or part of it Q317A): as the sequence (A0A977Q7Q2 entry or part of it Y213A) above, with A213Y, Q317A counted along it
Source text: as §1, §2

In test [5] the target is ALKR I329Q (Aplysia californica, UniProt A0A977Q7Q2, I329Q). In words: IP1 accumulation assay, ALKR mutant I329Q in CHO-K1.
Chain of ALKR I329Q (A0A977Q7Q2 entry or part of it I329Q): as the sequence (A0A977Q7Q2 entry or part of it Y213A) above, with A213Y, I329Q counted along it
Source text: as §1, §2

In test [6] the target is ALKR N314A (Aplysia californica, UniProt A0A977Q7Q2, N314A). Briefly: IP1 accumulation assay, ALKR mutant N314A in CHO-K1.
Chain of ALKR N314A (A0A977Q7Q2 entry or part of it N314A): as the sequence (A0A977Q7Q2 entry or part of it Y213A) above, with A213Y, N314A counted along it
Source text: as §1, §2

For test [7], the target named is ALKR Q317N (Aplysia californica, UniProt A0A977Q7Q2, Q317N). Briefly: IP1 accumulation assay, ALKR mutant Q317N in CHO-K1.
Chain of ALKR Q317N (A0A977Q7Q2 entry or part of it Q317N): as the sequence (A0A977Q7Q2 entry or part of it Y213A) above, with A213Y, Q317N counted along it
Source text: as §1, §2

The target of test [8] is ALKR Q133A (Aplysia californica, UniProt A0A977Q7Q2, Q133A). Briefly: IP1 accumulation assay, ALKR mutant Q133A in CHO-K1.
Chain of ALKR Q133A (A0A977Q7Q2 entry or part of it Q133A): as the sequence (A0A977Q7Q2 entry or part of it Y213A) above, with Q133A, A213Y counted along it
Source text: as §1, §2

Test [9] concerns the target T2, ALKR (Aplysia leucokinin-like peptide receptor) (Aplysia californica, UniProt A0A977Q7Q2).
T2 sequence (A0A977Q7Q2 1-429): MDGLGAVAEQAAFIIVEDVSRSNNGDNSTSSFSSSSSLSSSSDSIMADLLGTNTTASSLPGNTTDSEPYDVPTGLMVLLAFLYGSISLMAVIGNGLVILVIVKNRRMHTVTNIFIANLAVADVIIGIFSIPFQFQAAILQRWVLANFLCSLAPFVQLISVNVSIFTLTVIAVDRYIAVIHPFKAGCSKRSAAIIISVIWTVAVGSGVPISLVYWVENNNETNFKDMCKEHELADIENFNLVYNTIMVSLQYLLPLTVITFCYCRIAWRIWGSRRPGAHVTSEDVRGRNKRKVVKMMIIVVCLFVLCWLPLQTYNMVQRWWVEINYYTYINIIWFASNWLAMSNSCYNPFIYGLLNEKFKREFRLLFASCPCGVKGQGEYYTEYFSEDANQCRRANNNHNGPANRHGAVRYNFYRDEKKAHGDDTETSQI
In words: IP1 accumulation assay, CHO-K1 cells transfected with ALKR.
Source text: To examine whether the native ALKs could activate the putative ALKR, we expressed the ALKR in Chinese hamster ovary K1 (CHO-K1) cells and examined ALK-mediated changes in the concentration of inositol monophosphate (IP1), a degradation product of the second messenger (inositol trisphosphate) in the Gq signaling pathway upon ligand-induced activation ([88]) (Figs. 4 and S5). […] All endogenous ALK peptides could activate ALKR in a dose-dependent manner (Fig. 4, A–C). […] The lowest EC50 values were for ALK8 (EC50 = 10 nM) and ALK9 (EC50 = 10 nM). The EC50 values for ALK1, ALK2, ALK3, ALK4, ALK5, ALK10, ALK13 were slightly higher than that of ALK9, but there was no statistically significant difference between them (Table S5).
as §1
In order to express the Aplysia putative receptor transiently in CHO-K1, the cDNA was cloned into the mammalian expression vector pcDNA3.1(+). […] Transfection experiments were performed when the cells were grown to 70 to 90% confluence. For the ALKR, in each dish (60-mm diameter), 4 μg of the putative receptor plasmids [in pcDNA3.1(+)] were mixed with 400 μl of Opti-MEM (Gibco, 11058021), followed by the addition of 15 μl of Turbofect (Thermo Fisher Scientific, R0531). […] Thus, 3 μg of the putative receptor plasmids [in pcDNA3.1(+)] and 3 μg of promiscuous Gαq protein ([89]) [in pcDNA3.1(+)] were cotransfected in the above procedure for the Anopheles LKR ([8], [10]). The CHO-K1 cells with the reagents added above were mixed gently and incubated at room temperature for 15 min. The DNA/Turbofect mixture dropwise was then added to the dish, and the cells were incubated at 37 °C in 5% CO2 overnight. The next day, the cells were trypsinized and reseeded in opaque white 96-well half-area (Corning, 3688) or 384-well tissue culture–treated plates (Corning, 3570) at a density of 20,000 cells/well in F-12K and 10% FBS and incubated at 37 °C in 5% CO2 overnight. On the third day, the activation of the receptors was detected by monitoring IP1 accumulation using IP1 detection kit (Cisbio, 62IPAPEB) with a Tecan Spark plate reader. Except for using 0.5 × reagents for the anti-IP1-cryptate and IP1-d2 reagents, all other procedures were performed in accordance with the IP1 detection kit manufacturer’s instructions.

Chain of ALKR L157Q (A0A977Q7Q2 entry or part of it L157Q): as the sequence (A0A977Q7Q2 entry or part of it Y213A) above, with L157Q, A213Y counted along it

For the substance PAFHSWS-NH2 [ALK1], the EC50 in test [1] (EC50 on ALKR L157Q) is 77 nM; in [1] (log [EC50] on ALKR L157Q, log scale, mean ± SEM), 70.8 nM; in test [2] it was 282 nM; in test [3], 372 nM; in test [4] it was 56.2 nM; in test [5] it was 6760 nM. The EC50 in test [6] was 110 nM; in test [7], 25.1 nM; in test [8], 77.6 nM; in test [9] (log scale, CHO-K1 transiently transfected with ALKR, no promiscuous Gαq, IP1 detection kit (Cisbio), mean ± SEM, ALK1 n = 13, ALK2 n = 4, others n = 3, inactive: greater than highest concentration tested, read-out: log [EC50] on ALKR (converted)) it was 13.8 nM. Also, in test [9] (IP1 accumulation in CHO-K1 transfected with ALKR), the “Activation of ALKR (in words)” value was “active”.
